Data as given in ChEMBL document CHEMBL1255296, “Effect of 14-membered-ring macrolides on production of interleukin-8 mediated by protease-activated receptor 2 in human keratinocytes” (Antimicrob Agents Chemother, 2008).
Calls of active or inactive are those of the source. The calls are words filed in the database; no cut-off is given here.

Tests used:
[1] = molecular target: Proteinase-activated receptor 2 (Homo sapiens) (UniProt P55085); experiment: Inhibition of PAR2-mediated SLIGKV-NH2-induced interleukin-8 production in normal human epidermal keratinocytes at 100 uM preincubated for 24 hrs by ELISA
Proteinase-activated receptor 2 (Homo sapiens), sequence (P55085 whole entry): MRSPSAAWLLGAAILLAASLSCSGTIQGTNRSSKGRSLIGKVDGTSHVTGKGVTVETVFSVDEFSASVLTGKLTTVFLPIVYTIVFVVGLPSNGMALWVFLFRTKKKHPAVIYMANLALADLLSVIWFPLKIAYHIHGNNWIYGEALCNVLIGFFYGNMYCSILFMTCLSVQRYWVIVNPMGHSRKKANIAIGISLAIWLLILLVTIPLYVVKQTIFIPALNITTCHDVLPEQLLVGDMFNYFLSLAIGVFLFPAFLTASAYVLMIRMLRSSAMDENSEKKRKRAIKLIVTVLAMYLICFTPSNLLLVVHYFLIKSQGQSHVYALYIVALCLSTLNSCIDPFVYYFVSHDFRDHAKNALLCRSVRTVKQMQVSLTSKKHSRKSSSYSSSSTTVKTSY

[2] = Toxicity in normal human epidermal keratinocytes assessed as effect on cell viability at 100 uM after 72 hrs by colorimetric assay; format: cell-based; conditions: keratinocyte
[3] = molecular target: Proteinase-activated receptor 2 (Homo sapiens) (UniProt P55085); experiment: Inhibition of PAR2-mediated SLIGKV-NH2-induced interleukin-8 production in normal human epidermal keratinocytes at 10 uM preincubated for 24 hrs by ELISA
[4] = molecular target: Proteinase-activated receptor 2 (Homo sapiens) (UniProt P55085); experiment: Inhibition of PAR2-mediated IL1-beta and SLIGKV-NH2-induced interleukin-8 production in normal human epidermal keratinocytes at 10 uM by ELISA
[5] = Toxicity in normal human epidermal keratinocytes assessed as effect on cell viability at 10 uM after 72 hrs by colorimetric assay; format: cell-based; conditions: keratinocyte
Keratinocyte [6] = experiment: Effect on PAR2 gene expression in normal human epidermal keratinocytes assessed as effect on cell viability at 100 uM after 72 hrs; format: functional, cell-based
Keratinocyte [7] = experiment: Effect on PAR2 gene expression in normal human epidermal keratinocytes assessed as effect on cell viability at 10 uM after 72 hrs; format: functional, cell-based
[8] = molecular target: Proteinase-activated receptor 2 (Homo sapiens) (UniProt P55085); experiment: Inhibition of PAR2-mediated SLIGKV-NH2-induced interleukin-8 production in normal human epidermal keratinocytes at 5 uM preincubated for 24 hrs by ELISA
[9] = molecular target: Proteinase-activated receptor 2 (Homo sapiens) (UniProt P55085); experiment: Inhibition of PAR2-mediated SLIGKV-NH2-induced interleukin-8 production in normal human epidermal keratinocytes preincubated for 24 hrs by ELISA
[10] = molecular target: Proteinase-activated receptor 2 (Homo sapiens) (UniProt P55085); experiment: Inhibition of PAR2-mediated SLIGKV-NH2-induced interleukin-8 production in normal human epidermal keratinocytes up to 100 uM preincubated for 24 hrs by ELISA

Compound	inhibition [1]	Activity [2]	inhibition [3]	inhibition [4]	Activity [5]	Activity (Keratinocyte [6])	Activity (Keratinocyte [7])	inhibition [8]	inhibition [9]	inhibition [10]
CC[C@H]1OC(=O)[C@H](C)[C@@H](O[C@H]2C[C@@](C)(OC)[C@@H](O)[C@H](C)O2)[C@H](C)[C@@H](O[C@@H]2O[C@H](C)C[C@H](N(C)C)[C@H]2O)[C@](C)(O)C[C@@H](C)C(=O)[C@H](C)[C@@H](O)[C@]1(C)O [ERYTHROMYCIN]	Active	Non-toxic	Active	Active	Non-toxic	inactive	inactive	Active		
CO[C@H]1C[C@H](O[C@H]2[C@H](C)[C@@H](O[C@@H]3O[C@H](C)C[C@H](N(C)C)[C@H]3O)[C@@H](C)C[C@@]3(CO3)C(=O)[C@H](C)[C@@H](O)[C@@H](C)[C@@H](C)OC(=O)[C@@H]2C)O[C@@H](C)[C@@H]1O									inactive	
CC[C@H]1OC(=O)[C@H](C)[C@@H](O[C@H]2C[C@@](C)(OC)[C@@H](O)[C@H](C)O2)[C@H](C)[C@@H](O[C@@H]2O[C@H](C)C[C@H](N(C)C)[C@H]2O)[C@](C)(OC)C[C@@H](C)C(=O)[C@H](C)[C@@H](O)[C@]1(C)O [CLARITHROMYCIN]		Non-toxic		Active	Non-toxic	inactive	inactive			inactive
SPIRAMYCIN									inactive	
CO[C@@H]1[C@@H](O[C@@H]2O[C@H](C)[C@@H](O[C@H]3C[C@@](C)(O)[C@@H](OC(=O)CC(C)C)[C@H](C)O3)[C@H](N(C)C)[C@H]2O)[C@@H](CC=O)C[C@@H](C)[C@@H](O)/C=C/C=C/C[C@@H](C)OC(=O)C[C@H]1OC(C)=O									inactive	
CC[C@H]1OC(=O)[C@H](C)[C@@H](O[C@H]2C[C@@](C)(OC)[C@@H](O)[C@H](C)O2)[C@H](C)[C@@H](O[C@@H]2O[C@H](C)C[C@H](N(C)C)[C@H]2O)[C@](C)(O)C[C@@H](C)/C(=N\OCOCCOC)[C@H](C)[C@@H](O)[C@]1(C)O [ROXITHROMYCIN]	Active	Non-toxic	Active	Active	Non-toxic	inactive	inactive			
